Consider one molecule from patent publication US7935823B2 (priority 2007, dated 2011).

In data set [1] the test system is primary rat cortical neurons. The note with it: cultured three days; picomolar concentrations; compared with BDNF at maximally effective concentrations; cited from earlier work.
In a further data set the test system is C57/B female mice. Kind of data set: Geroprotector activity in aging mice. It is filed as in vivo. The note with it: 3 mg/kg per day in drinking water. As for the experimental part:
Dimebon was evaluated as an agent that prolongs life and improves the quality of life (characterized by changes in the amount of pathologies that accompany ageing) in the laboratory animals.
Experiments were conducted with C57/B female mice, starting from their age of 12 months. Mice were kept on cells, 10 animals per a cell. Both control and experimental group included 50 animals in each group. […] The day-night cycle was 12 hours.
Prior to the experiment, daily and weekly water consumption by the animals in one cell was measured. Dimebon was added in water in such amount that each animal would consume 3 mg/kg of Dimebon per day in average. Bottles with water containing Dimebon were replaced every 7 days. Animals in the control group were receiving pure water.
Prior to the experiment, all the animals were weighed, and an average weight was determined in every group, every cell, as well as the weight of all animals in every cell. The condition of skin, hair, and eyes were also determined by visual inspection. […] Evaluation of all these parameters was conducted on a monthly basis.
Statistics were calculated using Student T-test and ‘Chi-squared’ criteria.

The target of a further data set is NMDA receptor. The note with it: read-out: NMDA receptor inhibition constant (Ki); cited from earlier work.
Another data set concerns the target acetylcholinesterase (Homo sapiens, UniProt P22303). The note with it: recombinant enzyme and fresh blood samples from three volunteers; read-out: acetylcholinesterase half-maximal inhibitory concentration (IC50); cited from earlier work.
The conditions of data set [2]: human clinical studies; cited from earlier work.
Data set [3] has as its system SK—N—SH human neuroblastoma cells. The note with it: ionomycin-treated cells (70 percent without drug); picomolar concentrations; cited from earlier work.
Data set [4] concerns mitochondrial permeability transition pores. The note with it: MPP(+) and beta-amyloid fragment 25-35; cited from earlier work.
The test system of data set [5] is neuroblastoma line (SH—SY5Y). The note with it: pre-treatment with one nano-molar; cited from earlier work.
Data set [6] concerns patients with mild to moderate AD. The note with it: cited from earlier work.
Data set [7] concerns SK—N—SH human neuroblastoma cells. The note with it: ionomycin-treated cells (40 percent without drug); picomolar concentration; cited from earlier work.
The test system of data set [8] is ion channels associated with glutamate receptors. Kind of data set: Glutamate-stimulated calcium-ion uptake in rat brain synaptosomes. The following applies: P2-fraction of synaptosomes from newborn rat brain; initial screening 5 uM. As for the experimental part:
Evaluation of the calcium-blocking properties of dimebon was conducted with P2-fraction of synaptosomes, which were isolated from the brain of newborn (8-11 days) rats according to the protocol described in [Bachurin et al. Neuroprotective and cognition enhancing properties of MK-801 flexible analogs. Structure-activity relationships./Ann. N.Y. Acad. Sci., 2001, v. 939, pp. 219-235]. In this test, the ability of the compounds to inhibit a specific uptake of calcium ions via ion channels associated with glutamate receptors was determined.
Synaptosomes were placed into the incubation buffer A (132 mM NaCl, 5 mM KCl, 5 mM HEPES) and were kept at 0 degrees Celsius (“C”) during the entire experiment. Aliquots of synaptosomes (50µl) were placed in the media A, containing investigated compounds and a preparation of the radiolabeled calcium, ^45Ca. […] A specific calcium uptake was calculated using the following equation K(43/21)=[(Ca4−Ca3)/(Ca2−Ca1)]*100% where: Ca1 is a calcium uptake in a control experiment (no glutamate or test compound added); Ca2 is a calcium uptake in the presence of glutamate only (Glutamate Induced Calcium Uptake—GICU); Ca3 is a calcium uptake in the presence of a test compound only (no glutamate added); Ca4 is a calcium uptake in the presence of both glutamate and a test compound.

Sequence of acetylcholinesterase (P22303 32-574 limits assumed): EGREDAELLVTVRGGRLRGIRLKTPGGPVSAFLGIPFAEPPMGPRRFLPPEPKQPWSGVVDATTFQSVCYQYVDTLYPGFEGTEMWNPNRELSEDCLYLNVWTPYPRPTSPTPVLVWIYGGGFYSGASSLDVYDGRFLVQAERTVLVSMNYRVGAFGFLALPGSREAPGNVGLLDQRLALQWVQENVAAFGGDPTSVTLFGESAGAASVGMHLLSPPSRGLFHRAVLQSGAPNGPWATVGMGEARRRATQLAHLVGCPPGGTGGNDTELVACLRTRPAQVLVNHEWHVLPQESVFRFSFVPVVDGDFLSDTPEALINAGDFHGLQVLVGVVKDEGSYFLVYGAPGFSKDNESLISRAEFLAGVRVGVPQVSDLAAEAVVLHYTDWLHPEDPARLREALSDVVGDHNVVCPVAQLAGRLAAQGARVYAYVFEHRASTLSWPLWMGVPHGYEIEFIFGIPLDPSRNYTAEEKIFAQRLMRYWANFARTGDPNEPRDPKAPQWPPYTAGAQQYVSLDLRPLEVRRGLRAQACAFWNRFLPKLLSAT

`Cc1ccc2c(c1)c1c(n2CCc2ccc(C)nc2)CCN(C)C1` [dimebon]: the neurite outgrowth entry in [1] is reported as “increased neurite outgrowth as well as did BDNF”. Also, in the data set on C57/B female mice, the age-related weight depletion result is given as “No weight depletion was observed”; the “development of non-fatal pathologies (loss of vision and alopecia)” value is given as “slowing of the development of non-fatal pathologies”. For the same molecule, in the data set on C57/B female mice (from age 12 months), the probability of death entry is given as “lower in all age groups”. For the same molecule, in the data set with C57/B female mice (13 to 20 months old mice), the “amount of animals with cataract vs control” value is recorded as “significantly less”. In addition, at NMDA receptor, the Ki was 97 µM. Further, at acetylcholinesterase, the IC50 is 31 to 72 µM. Further, the “participants/patients reporting gastrointestinal problems” value in data set [2] is “less than 3%”. In addition, the “JC-1 red/green ratio relative to control cells” value in [3] is 85-90%. The “prevention of neurotoxin-induced opening of mitochondrial pores” value in data set [4] was “prevented”. The “protection of mitochondrial function (TMRM probe)” value in [5] is listed as “protected cells from ionomycin-induced stress”. Moreover, in [6] (one-year randomized double-blinded placebo-controlled trial, 183 patients), the “clinical endpoints and tolerability in one-year trial” value is “met all five clinical endpoints with strong statistical significance, and was very well tolerated”. Further, the safety and tolerability entry in data set [6] (six-month open-label extension, exposure to 18 months) is “no safety or tolerability issues”. In addition, in [7], the “cell survival (MTT) relative to control cells” value is 75-85%. The “calcium-blocking properties (specific glutamate-induced 45Ca uptake)” value in data set [8] is “pronounced calcium-blocking properties”.

The Ki is a dissociation constant, usually derived from enzyme kinetics or from competition with a known ligand.
